Patent US4529720A, “Antibiotic from Streptomyces clavulicerus” (Beecham Group, p.l.c., priority 1974, dated 1985)
Structures can show the parent of a compound that is named as a salt.

Tests used:
Klebsiella aerogenes 62 = assay: Antibacterial synergism, microtitre MIC (Example 42); format: cell-based; settings: Table 8; method of Example 42
Klebsiella aerogenes A [1] = assay: as above; format: cell-based; settings: Table 8; method of Example 42
[2] = test system: Klebsiella aerogenes E 70; assay: as above; format: cell-based; settings: Table 8; method of Example 42
Klebsiella aerogenes A [3] = assay: Growth inhibition, alone and combined (description); format: cell-based; settings: 5 μg/ml of clavulanic acid also present
[4] = test system: Staphylococcus aureus (Russell); assay: Antibacterial synergism, microtitre MIC (Example 42); format: cell-based
Staphylococcus aureus = assay: as above; format: cell-based; settings: Table 6
bacteria = assay: Tests for antibacterial activity in broth (Example 32); format: cell-based; settings: against bacteria resistant to these antibiotics
[5] = Hydrolysis of methyl ester in pH 7 phosphate buffer; format: physicochemical; settings: 1 mg/ml, 37° C., 0.05M phosphate buffer pH 7, followed over 2 hours
Method: The reaction was followed by paper chromatography (bioautographic system). Using the butanol/ethanol/water system to follow the reaction over a period of 2 hours the zone of the methyl ester at Rf 0.79 decreased in size as the zone of clavulanic acid at Rf 0.12 increased.

Stability in human blood = format: in vitro ADME

CC1(C)S[C@@H]2[C@H](NC(=O)[C@H](N)c3ccccc3)C(=O)N2[C@H]1C(=O)O [Ampicillin, ampicillin]
M.I.C., Ampicillin + 5 μg/ml of Benzyl Ester of clavulanic acid (Klebsiella aerogenes 62): 3.9
M.I.C., Ampicillin + 5 μg/ml of Methyl Ester of clavulanic acid (Klebsiella aerogenes 62): 3.9
M.I.C., Ampicillin + 5 μg/ml of Benzyl Ester of clavulanic acid (Klebsiella aerogenes A [1]): 1.9
M.I.C., Ampicillin + 5 μg/ml of Methyl Ester of clavulanic acid (Klebsiella aerogenes A [1]): 1.9
M.I.C., Ampicillin + 5 μg/ml of Benzyl Ester of clavulanic acid [2]: 3.9
M.I.C., Ampicillin + 5 μg/ml of Methyl Ester of clavulanic acid [2]: 3.9

CC1(C)S[C@@H]2[C@H](NC(=O)Cc3ccccc3)C(=O)N2[C@H]1C(=O)O [Benzylpenicillin, benzylpenicillin]
concentration of penicillin inhibiting growth when clavulanic acid is also present (Klebsiella aerogenes A [3]): less than 12.5 μg/ml

O=C(Cc1cccs1)N[C@@H]1C(=O)N2C(C(=O)[O-])=C(C[n+]3ccccc3)CS[C@H]12 [Cephaloridine, cephaloridine]
Minimum Inhibitory Concentration of cephaloridine when synergist added at 1 μg/ml ([4]; clavulanic acid sodium salt at 1 μg/ml, compared with <0.03 μg/ml at 5 μg/ml, footnote of Table 6): Same value
Minimum Inhibitory Concentrations, Cephaloridine in presence of 5 μg/ml clavulanic acid sodium salt (Staphylococcus aureus; in presence of 5 μg/ml clavulanic acid sodium salt): 3.7 µg/mL

COC(=O)[C@H]1/C(=C/CO)O[C@@H]2CC(=O)N21 [clavulanic acid methyl ester]
antibacterial synergism in combination with ampicillin or cephaloridine (bacteria): marked antibacterial synergism
hydrolysis of the ester to clavulanic acid [5]: Slow conversion of the ester to clavulanic acid
hydrolysis of the ester to clavulanic acid ([5]; listed as methyl ester): slowly hydrolyse to clavulanic acid

O=C(O)[C@H]1/C(=C/CO)O[C@@H]2CC(=O)N21 [clavulanic acid sodium salt, 3-(β-hydroxyethylidine)-7-oxo-4-oxa-1-azabicyclo[3,2,0]heptane-2-carboxylic acid sodium salt]
Minimum Inhibitory Concentrations ([4]; agent alone, Table 6): 15 µg/mL
Minimum Inhibitory Concentrations (Staphylococcus aureus; agent alone): 62 µg/mL

O=C(O)[C@H]1/C(=C/CO)O[C@@H]2CC(=O)N21 [clavulanic acid, Z-(2R,5R)-3-(β-hydroxyethylidene)-7-oxo-4-oxa-1-azabicyclo[3,2,0]heptane-2-carboxylic acid]
stability in human blood (Stability in human blood): high stability in human blood
